Results published in patent publication US7462625B2, “Gonadotropin-releasing hormone receptor antagonists and methods relating thereto” (Neurocrine Biosciences, Inc., priority 2000, dated 2008).

target: T1, GnRH receptor (Homo sapiens, UniProt P30968); experiment: GnRH receptor membrane binding assay; conditions: GnRH receptor membrane binding assay, [125I]-labeled GnRH peptide; read-out: Ki
T1 construct: expressed in transfected cells
T1 sequence (P30968 1-328): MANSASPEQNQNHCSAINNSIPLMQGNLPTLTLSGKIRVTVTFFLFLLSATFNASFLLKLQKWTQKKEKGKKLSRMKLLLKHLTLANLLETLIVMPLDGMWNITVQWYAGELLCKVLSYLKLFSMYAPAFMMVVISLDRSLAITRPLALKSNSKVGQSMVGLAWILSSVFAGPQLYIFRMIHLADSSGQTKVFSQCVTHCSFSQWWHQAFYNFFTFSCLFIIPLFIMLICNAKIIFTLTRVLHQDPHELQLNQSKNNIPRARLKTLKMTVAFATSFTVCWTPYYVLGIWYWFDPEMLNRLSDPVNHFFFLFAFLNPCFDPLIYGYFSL
Experimental: Radio-Iodination of GnRH Peptide
The GnRH analog is labeled by the chloramine-T method. […] The reaction is stopped by the addition of 60 μg sodium metabisulfite and the free iodine is removed by passing the iodinated mixture through a C-8 Sep-Pak cartridge (Millipore Corp., Milford, Mass.). The peptide is eluted with a small volume of 80% acetonitrile/water. […] The purified radioactive peptide is stored in 0.1% BSA/20% acetonitrile/0.1% TFA at −80° C. and can be used for up to 4 weeks.
GnRH Receptor Membrane Binding Assay
Cells stably, or transiently, transfected with GnRH receptor expression vectors are harvested, resuspended in 5% sucrose and homogenized using a polytron homogenizer (2×15 sec). Nucleii are removed by centrifugation (3000×g for 5 min.), and the supernatant centrifuged (20,000×g for 30 min, 4° C.) to collect the membrane fraction. The final membrane preparation is resuspended in binding buffer (10 mM Hepes (pH 7.5), 150 mM NaCl, and 0.1% BSA) and stored at −70° C. Binding reactions are performed in a Millipore MultiScreen 96-well filtration plate assembly with polyethylenimine coated GF/C membranes. […] The reaction is terminated after 90 minutes by application of vacuum and washing (2×) with phosphate buffered saline. Bound radioactivity is measured using 96-well scintillation counting (Packard Topcount) or by removing the filters from the plate and direct gamma counting. Ki values are calculated from competition binding data using non-linear least squares regression using the Prism software package (GraphPad Software).

Ki, < 100 nM:
COc1cccc(-c2c(C)n(Cc3c(F)cccc3F)c(=O)n(CCN(CCc3ccccn3)CC3CC3)c2=O)c1 [1-12]
CCN1CCC(N(CC)CCn2c(=O)c(-c3cccc(OC)c3)c(C)n(Cc3c(F)cccc3F)c2=O)C1 (stereo not drawn) [1-13]
COc1ccc(-c2c(C)n(Cc3c(F)cccc3F)c(=O)n(C[C@H](N)c3ccccc3)c2=O)cn1 [8-58]
Cc1c(/C=C/c2ccccc2)c(=O)n(CCN(C)CCc2ccccn2)c(=O)n1Cc1c(F)cccc1F [9-287]
COc1cccc(-c2c(C)n(Cc3c(F)cccc3F)c(=O)n(CC(C)NCc3cc(Br)cs3)c2=O)c1F (stereo not drawn) [9-622]
Cc1c(-c2ccc(C(C)C)cc2)c(=O)n(CCN2CCN(c3cccc(Cl)c3)CC2)c(=O)n1Cc1c(F)cccc1F [9-85]
Cc1c(-c2ccc(Oc3ccccc3)cc2)c(=O)n(CCN2CCN(c3ccccc3)CC2)c(=O)n1Cc1c(F)cccc1F [9-146]
CN[C@H](CC(C)C)Cn1c(=O)c(-c2cccc(OC)c2F)cn(Cc2c(F)cccc2F)c1=O [13-4]
CCOc1ccccc1CNC[C@@H](C)n1c(=O)c(-c2cccc(C)c2F)c(C)n(Cc2c(F)cccc2F)c1=O [9-636]
CCc1c(-c2cccc(OC)c2)c(=O)n(C[C@H](N)c2ccccc2)c(=O)n1Cc1c(F)cccc1F [15-2]
Cc1c(-c2csc(Cc3ccccc3)n2)c(=O)n(C[C@H](N)c2ccccc2)c(=O)n1Cc1c(F)cccc1F [12-5]
Cc1cc(-c2c(C)n(Cc3c(F)cccc3F)c(=O)n(C[C@H](N)c3ccccc3)c2=O)ccc1F [8-44]
Cc1c(-c2ccc3c(c2)OCCO3)c(=O)n(CCNCCN(C)C)c(=O)n1Cc1c(F)cccc1F [9-270]
COc1cccc(-c2c(C)n(Cc3c(F)cccc3F)c(=O)n(C[C@@H](C)NC(C)C(C)C)c2=O)c1F (stereo partly drawn) [9-613]
COc1cccc(-c2c(C)n(Cc3c(F)cccc3F)c(=O)n(C[C@H](C)NCCc3ccccn3)c2=O)c1F [9-470]
COc1cccc(-c2c(C)n(Cc3c(F)cccc3F)c(=O)n(CCN3CCC(N4CCCC4)CC3)c2=O)c1 [7-2]
Cc1c(-c2ccccc2F)c(=O)n(CCN2CCN(C(=O)OCc3ccccc3)CC2)c(=O)n1Cc1c(F)cccc1F [9-58]
COc1cccc(Oc2ccc(-c3c(C)n(Cc4c(F)cccc4F)c(=O)n(C[C@H](N)c4ccccc4)c3=O)cc2)c1 [8-68]
COc1cccc(-c2c(C)n(Cc3c(F)cccc3F)c(=O)n(CCN3CC4CC3CO4)c2=O)c1 (stereo not drawn) [7-10]
Cc1c(-c2ccc3c(c2)OCCO3)c(=O)n(CCN[C@@H](C)c2ccc3ccccc3c2)c(=O)n1Cc1c(F)cccc1F [9-275]
Cc1c(-c2ccc3c(c2)OCO3)c(=O)n(CCNCCN(C)C)c(=O)n1Cc1c(F)cccc1F [9-242]
COc1ccc(CCNCCn2c(=O)c(-c3ccccc3F)c(C)n(Cc3c(F)cccc3F)c2=O)cc1OC [9-229]
Cc1c(-c2ccc3c(c2)OCO3)c(=O)n(CCN2CCN(c3cccc(Cl)c3)CC2)c(=O)n1Cc1c(F)cccc1F [9-70]
COc1ccc(-c2c(C)n(Cc3c(F)cccc3F)c(=O)n(C[C@H](N)c3ccccc3)c2=O)cc1 [8-100]
Cc1c(-c2ccc(Oc3ccccc3)cc2)c(=O)n(CCN(Cc2ccccc2)Cc2ccccc2)c(=O)n1Cc1c(F)cccc1F [9-39]
COc1cccc(-c2c(C)n(Cc3c(F)cccc3F)c(=O)n(C[C@H](N)COCc3ccccc3)c2=O)c1F [8-15]
COc1ccc(Nc2nc(-c3c(C)n(Cc4c(F)cccc4F)c(=O)n(C[C@H](N)c4ccccc4)c3=O)cs2)cc1OC [12-27]
Cc1cc(=O)n(C[C@H](N)Cc2ccccc2)c(=O)n1Cc1c(F)cccc1F [8-7]
CCCCN(CCCC)[C@H](C)Cn1c(=O)c(-c2cccc(OC)c2F)c(C)n(Cc2c(F)cccc2F)c1=O [9-612]
Cc1c(-c2ccc(Oc3ccccc3)cc2)c(=O)n(CCN[C@@H](C)c2ccc3ccccc3c2)c(=O)n1Cc1c(F)cccc1F [9-219]
CCOc1cccc(-c2c(C)n(Cc3c(F)cccc3F)c(=O)n(C[C@H](N)c3ccccc3)c2=O)c1 [8-59]
COc1cccc(-c2c(C)n(Cc3c(F)cccc3F)c(=O)n([C@H](C)CNCc3ccccc3)c2=O)c1 [9-312]
COc1cccc(-c2c(C)n(Cc3c(F)cccc3F)c(=O)n(CC3CCCN3)c2=O)c1 (stereo not drawn) [9-26]
COc1cccc(-c2c(C)n(Cc3c(F)cccc3F)c(=O)n(C[C@H](CC(C)C)N(C)C)c2=O)c1F [9-704]
COc1cccc(-c2c(C)n(Cc3c(F)cccc3F)c(=O)n(C[C@H](C)NCc3cccn3C)c2=O)c1F [9-664]
CCc1c(-c2cccc(OC)c2F)c(=O)n(C[C@H](N)c2ccccc2)c(=O)n1Cc1c(F)cccc1F [15-1]
CSc1cccc(-c2c(C)n(Cc3c(F)cccc3F)c(=O)n(C[C@H](N)c3ccccc3)c2=O)c1 [8-61]
COc1cccc(-c2c(C)n(Cc3c(F)cccc3F)c(=O)n(C[C@H](C)NCc3ccc(O)cc3)c2=O)c1F [9-680]
COc1cccc(-c2c(C)n(Cc3c(F)cccc3F)c(=O)n(C[C@@H](C)N(C)CCc3ccccn3)c2=O)c1 [9-318]
COc1cccc(-c2c(C)n(Cc3c(F)cccc3F)c(=O)n(C[C@@H](C(C)C)N(C)C)c2=O)c1F [9-711]
COc1cccc(-c2c(C)n(Cc3c(F)cccc3F)c(=O)n(C[C@H](C)NCc3[nH]cnc3C)c2=O)c1F [9-602]
COc1cccc(-c2c(C)n(Cc3c(F)cccc3F)c(=O)n(C(C)CNCc3ccccn3)c2=O)c1 (stereo not drawn) [9-402]
Cc1c(-c2ccc3c(c2)OCO3)c(=O)n(CCNCCN(C(C)C)C(C)C)c(=O)n1Cc1c(F)cccc1F [9-64]
Cc1c(-c2ccc(Oc3ccccc3)cc2)c(=O)n(CCNCc2cccc([N+](=O)[O-])c2)c(=O)n1Cc1c(F)cccc1F [9-142]
COc1cccc(-c2c(C)n(Cc3c(F)cccc3F)c(=O)n([C@H](C)CNCc3cc(Cl)ccc3O)c2=O)c1F [9-503]
CCCN(CCn1c(=O)c(-c2ccc(C(C)C)cc2)c(C)n(Cc2c(F)cccc2F)c1=O)C(C)CC (stereo not drawn) [9-86]
Cc1nc(-c2c(C)n(Cc3c(F)cccc3F)c(=O)n(C[C@H](N)c3ccccc3)c2=O)cs1 [12-1]
COc1cccc(-c2c(C)n(Cc3c(F)cccc3F)c(=O)n([C@H](C)CNCc3ccc4c(c3)CCO4)c2=O)c1F [9-495]
Cc1c(-c2ccc(Oc3ccccc3)cc2)c(=O)n(CCN(C)CCc2ccccn2)c(=O)n1Cc1c(F)cccc1F [6-2]
Cc1ccc(Nc2nc(-c3c(C)n(Cc4c(F)cccc4F)c(=O)n(C[C@H](N)c4ccccc4)c3=O)cs2)cc1 [12-32]
COc1cccc(-c2c(C)n(Cc3c(F)cccc3F)c(=O)n(C[C@@H](C)NCc3ccsc3)c2=O)c1F [9-570]
COc1ccccc1CNC[C@@H](C)n1c(=O)c(-c2cccc(C)c2F)c(C)n(Cc2c(F)cccc2F)c1=O [9-634]
COc1cccc(-c2c(C)n(Cc3c(F)cccc3F)c(=O)n([C@H](C)CNCc3c[nH]c4ccccc34)c2=O)c1F [9-509]
Cc1c(-c2ccc(Oc3ccccc3)cc2)c(=O)n(CCNCC(F)(F)F)c(=O)n1Cc1c(F)cccc1F [9-138]
Cc1c(-c2ccc3c(c2)OCCO3)c(=O)n(CCN2CCN(c3ccccc3)CC2)c(=O)n1Cc1c(F)cccc1F [9-199]
Cc1c(-c2ccc(Oc3cccc(Cl)c3)cc2)c(=O)n(C[C@H](N)c2ccccc2)c(=O)n1Cc1c(F)cccc1F [8-70]
CCC(C)NC(=O)[C@@H]1CCCN1CCn1c(=O)c(-c2cccc(OC)c2)c(C)n(Cc2c(F)cccc2F)c1=O (stereo partly drawn) [9-112]
